Reference: US20180139987A1, “PHARMACEUTICAL POWDER COMPOSITION AND ITS USE IN THE CONTROL OF POST-PRANDIAL GLYCAEMIC PROFILE” (OMNIBLEND INNOVATION PTY LTD, priority 2015, published 2018)

Legend:
[1] = test system: subject with type 2 diabetes; assay: Post-prandial glycemic profile (finger-prick blood sugar) after white rice breakfast, subjects with type 2 diabetes; format: in vivo, human
Protocol: 160 g microwaveable white rice (details, amount of available carbohydrate?) was eaten together with a cup of water.
240 g microwaveable white rice (Uncle Bens Brand Microwavable White Rice, […] of available carbohydrate) and 200 ml of hot tea.
Finger-prick blood sugar readings were taken before consumption of the standard meal in the morning (i.e. the standard meal was breakfast). Two readings were taken and the average value was used as the blood sugar reading. After consumption of the meal, another blood sugar reading was taken. Further blood sugar readings were taken at 15-minute intervals thereafter.
A subject with type 2 diabetes (T2D1, person) was given a standard white rice breakfast (Example A2) and was tested for post-prandial glycemic profile—this was the first control glycemic profile. […] This was the third control glycemic profile. […] This was the test glycemic profile. […]
A subject with type 2 diabetes (T2D5, person) was given a standard white rice breakfast (Example A2) and was tested for post-prandial glycemic profile—this was the first control glycemic profile. […] This was the third control glycemic profile. […] This was the test glycemic profile.
This was the second glycemic test profile.
This was the second test glycemic profile.
This was the first glycemic test profile.

Healthy Participant = assay: Post-prandial glycemic profile (finger-prick blood sugar) after white rice breakfast, healthy participant; format: in vivo, human; conditions: HP2 healthy participant, 125 g white rice
Source text: 125 g microwaveable white rice (details, amount of available carbohydrate?) was eaten together with a cup of water. Finger-prick blood sugar readings were taken before consumption of the standard meal in the morning (i.e. the standard meal was breakfast). Two readings were taken and the average value was used as the blood sugar reading. After consumption of the meal, another blood sugar reading was taken. Further blood sugar readings were taken at 15-minute intervals thereafter. A subject (HP2, Healthy Participant) was given a standard white rice breakfast, containing 125 g cooked white rice (example A3), and was tested for post-prandial glycemic profile-this was the first control glycemic profile. […] This was the third control glycemic profile. On another day, the same subject was given the acarbose-containing pre-meal drink described in example A1 (this drink is prepared according to the invention). This was the test glycemicsrofile.

[2] = test system: subject with type 2 diabetes; assay: Post-prandial glycemic profile (finger-prick blood sugar) after white bread breakfast, subjects with type 2 diabetes; format: in vivo, human
Source text: 2 slices of thick-cut savoury white bread spread with 29 g jam (over both slices) were eaten together with a cup of tea or coffee. A total available carbohydrate per serve was 50 g. 2 slices of thick-cut savoury white bread spread with 29 g jam (over both slices) were eaten together with a cup of tea or coffee. […] A total available carbohydrate per serve was 50 g. Finger-prick blood sugar readings were taken before consumption of the standard meal in the morning (i.e. the standard meal was breakfast). Two readings were taken and the average value was used as the blood sugar reading. After consumption of the meal, another blood sugar reading was taken. Further blood sugar readings were taken at 15-minute intervals thereafter. […] This was the first glycemic test profile. […] This was the second glycemic test profile. […] This was the first test glycemic profile. […] This was the second glycemic test profile.

patients = conditions: 1255 patients, Acarbose tablets 50-300 mg t.i.d.; cited from earlier work

C[C@H]1O[C@H](O[C@H]2[C@H](O)[C@@H](O)[C@@H](O[C@H]3[C@H](O)[C@@H](O)C(O)O[C@@H]3CO)O[C@@H]2CO)[C@H](O)[C@@H](O)[C@@H]1N[C@H]1C=C(CO)[C@@H](O)[C@H](O)[C@H]1O (stereo partly shown) [acarbose]
glycemic profile (mM blood glucose) ([1]; T2D1, 240 g white rice (Example B3), time after eating 30 min): 9.32 mM
glycemic profile (mM blood glucose) ([1]; T2D1, 240 g white rice (Example B3), time after eating 60 min): 10.4 mM
glycemic profile (mM blood glucose) ([1]; T2D1, 240 g white rice (Example B3), time after eating 75 min): 11.0 mM
glycemic profile (mM blood glucose) ([1]; T2D1, 240 g white rice (Example B3), time after eating 90 min): 10.8 mM
glycemic profile (mM blood glucose) ([1]; T2D1, 240 g white rice (Example B3), time after eating 105 min): 11 mM
glycemic profile (mM blood glucose) ([1]; T2D1, 240 g white rice (Example B3), time after eating 120 min): 10.4 mM
glycemic profile (mM blood glucose) ([1]; T2D1, 240 g white rice (Example B3), time after eating 135 min): 10.4 mM
glycemic profile (mM blood glucose) ([1]; T2D1, 240 g white rice (Example B3), time after eating 165 min): 9.45 mM
glycemic profile (mM blood glucose) ([1]; T2D1, 240 g white rice (Example B3), time after eating 180 min): 9.66 mM
glycemic profile (mM blood glucose) ([1]; T2D1, 240 g white rice (Example B3), time after eating −25 min): 7.3 mM
glycemic profile (mM blood glucose) ([1]; T2D1, 240 g white rice (Example B7), time after eating 30 min): 9.32 mM
glycemic profile (mM blood glucose) ([1]; T2D1, 240 g white rice (Example B7), time after eating 60 min): 10.4 mM
glycemic profile (mM blood glucose) ([1]; T2D1, 240 g white rice (Example B7), time after eating 75 min): 11.0 mM
glycemic profile (mM blood glucose) ([1]; T2D1, 240 g white rice (Example B7), time after eating 90 min): 10.8 mM
glycemic profile (mM blood glucose) ([1]; T2D1, 240 g white rice (Example B7), time after eating 105 min): 11 mM
glycemic profile (mM blood glucose) ([1]; T2D1, 240 g white rice (Example B7), time after eating 120 min): 10.4 mM
glycemic profile (mM blood glucose) ([1]; T2D1, 240 g white rice (Example B7), time after eating 135 min): 10.4 mM
glycemic profile (mM blood glucose) ([1]; T2D1, 240 g white rice (Example B7), time after eating 165 min): 9.45 mM
glycemic profile (mM blood glucose) ([1]; T2D1, 240 g white rice (Example B7), time after eating 180 min): 9.66 mM
glycemic profile (mM blood glucose) ([1]; T2D1, 240 g white rice (Example B7), time after eating −25 min): 7.3 mM
glycemic profile (mM blood glucose) ([1]; T2D1, standard white rice breakfast (Example A2, 160 g), time after eating 45 min): 9.6 mM
glycemic profile (mM blood glucose) ([1]; T2D1, standard white rice breakfast (Example A2, 160 g), time after eating 60 min): 9.8 mM
glycemic profile (mM blood glucose) ([1]; T2D1, standard white rice breakfast (Example A2, 160 g), time after eating 75 min): 9.6 mM
glycemic profile (mM blood glucose) ([1]; T2D1, standard white rice breakfast (Example A2, 160 g), time after eating 90 min): 10.9 mM
glycemic profile (mM blood glucose) ([1]; T2D1, standard white rice breakfast (Example A2, 160 g), time after eating 105 min): 9.65 mM
glycemic profile (mM blood glucose) ([1]; T2D1, standard white rice breakfast (Example A2, 160 g), time after eating 120 min): 10.25 mM
glycemic profile (mM blood glucose) ([1]; T2D1, standard white rice breakfast (Example A2, 160 g), time after eating 135 min): 9.82 mM
glycemic profile (mM blood glucose) ([1]; T2D1, standard white rice breakfast (Example A2, 160 g), time after eating 150 min): 9.26 mM
glycemic profile (mM blood glucose) ([1]; T2D5, 240 g white rice (Example B2), time after eating 0 min): 7.4 mM
glycemic profile (mM blood glucose) ([1]; T2D5, 240 g white rice (Example B2), time after eating 30 min): 10.4 mM
glycemic profile (mM blood glucose) ([1]; T2D5, 240 g white rice (Example B2), time after eating 45 min): 10.1 mM
glycemic profile (mM blood glucose) ([1]; T2D5, 240 g white rice (Example B2), time after eating 60 min): 9.7 mM
glycemic profile (mM blood glucose) ([1]; T2D5, 240 g white rice (Example B2), time after eating 75 min): 9.95 mM
glycemic profile (mM blood glucose) ([1]; T2D5, 240 g white rice (Example B2), time after eating 165 min): 7.3 mM
glycemic profile (mM blood glucose) ([1]; T2D5, 240 g white rice (Example B2), time after eating 180 min): 6.5 mM
glycemic profile (mM blood glucose) ([1]; T2D5, 240 g white rice (Example B2), time after eating −10 min): 5.2 mM
glycemic profile (mM blood glucose) ([1]; T2D5, 240 g white rice (Example B2), time after eating −25 min): 5 mM
glycemic profile (mM blood glucose) ([1]; T2D5, 240 g white rice (Example B6), time after eating 0 min): 7.4 mM
glycemic profile (mM blood glucose) ([1]; T2D5, 240 g white rice (Example B6), time after eating 30 min): 10.4 mM
glycemic profile (mM blood glucose) ([1]; T2D5, 240 g white rice (Example B6), time after eating 45 min): 10.15 mM
glycemic profile (mM blood glucose) ([1]; T2D5, 240 g white rice (Example B6), time after eating 60 min): 9.76 mM
glycemic profile (mM blood glucose) ([1]; T2D5, 240 g white rice (Example B6), time after eating 75 min): 9.95 mM
glycemic profile (mM blood glucose) ([1]; T2D5, 240 g white rice (Example B6), time after eating 165 min): 7.3 mM
glycemic profile (mM blood glucose) ([1]; T2D5, 240 g white rice (Example B6), time after eating 180 min): 6.5 mM
glycemic profile (mM blood glucose) ([1]; T2D5, 240 g white rice (Example B6), time after eating −10 min): 5.2 mM
glycemic profile (mM blood glucose) ([1]; T2D5, 240 g white rice (Example B6), time after eating −25 min): 5 mM
peak glucose height, rise above baseline ([1]; T2D5, 240 g white rice, baselines of both profiles matched): 5.3 mmol/L
glycemic profile (mM blood glucose) (Healthy Participant; time after eating 0 min): 6.03 mM
glycemic profile (mM blood glucose) (Healthy Participant; time after eating 15 min): 6.4 mM
glycemic profile (mM blood glucose) (Healthy Participant; time after eating 30 min): 7.04 mM
glycemic profile (mM blood glucose) (Healthy Participant; time after eating 45 min): 6.75 mM
glycemic profile (mM blood glucose) (Healthy Participant; time after eating 60 min): 5.9 mM
glycemic profile (mM blood glucose) (Healthy Participant; time after eating 75 min): 6.1 mM
glycemic profile (mM blood glucose) (Healthy Participant; time after eating 90 min): 6.175 mM
glycemic profile (mM blood glucose) (Healthy Participant; time after eating 105 min): 5.8 mM
glycemic profile (mM blood glucose) (Healthy Participant; time after eating 120 min): 6.3 mM
glycemic profile (mM blood glucose) (Healthy Participant; time after eating 135 min): 6.23 mM
glycemic profile (mM blood glucose) (Healthy Participant; time after eating −15 min): 5.65 mM
glycemic profile (mM blood glucose) ([2]; T2D5, 2 slices white bread + 29 g jam (Example B4), time after eating 0 min): 8.5 mM
glycemic profile (mM blood glucose) ([2]; T2D5, 2 slices white bread + 29 g jam (Example B4), time after eating 15 min): 9.3 mM
glycemic profile (mM blood glucose) ([2]; T2D5, 2 slices white bread + 29 g jam (Example B4), time after eating 30 min): 9.5 mM
glycemic profile (mM blood glucose) ([2]; T2D5, 2 slices white bread + 29 g jam (Example B4), time after eating 45 min): 9.65 mM
glycemic profile (mM blood glucose) ([2]; T2D5, 2 slices white bread + 29 g jam (Example B4), time after eating 60 min): 9.85 mM
glycemic profile (mM blood glucose) ([2]; T2D5, 2 slices white bread + 29 g jam (Example B4), time after eating 75 min): 9.6 mM
glycemic profile (mM blood glucose) ([2]; T2D5, 2 slices white bread + 29 g jam (Example B4), time after eating 90 min): 9.8 mM
glycemic profile (mM blood glucose) ([2]; T2D5, 2 slices white bread + 29 g jam (Example B4), time after eating 105 min): 9.35 mM
glycemic profile (mM blood glucose) ([2]; T2D5, 2 slices white bread + 29 g jam (Example B4), time after eating 120 min): 9.05 mM
glycemic profile (mM blood glucose) ([2]; T2D5, 2 slices white bread + 29 g jam (Example B4), time after eating 135 min): 7.65 mM
glycemic profile (mM blood glucose) ([2]; T2D5, 2 slices white bread + 29 g jam (Example B4), time after eating 150 min): 6.93 mM
glycemic profile (mM blood glucose) ([2]; T2D5, 2 slices white bread + 29 g jam (Example B4), time after eating 165 min): 6.55 mM
glycemic profile (mM blood glucose) ([2]; T2D5, 2 slices white bread + 29 g jam (Example B4), time after eating 180 min): 5.35 mM
glycemic profile (mM blood glucose) ([2]; T2D5, 2 slices white bread + 29 g jam (Example B4), time after eating −10 min): 6.5 mM
glycemic profile (mM blood glucose) ([2]; T2D5, 2 slices white bread + 29 g jam (Example B4), time after eating −25 min): 6.25 mM
glycemic profile (mM blood glucose) ([2]; T2D9, 2 slices white bread + 29 g jam (Example B5), time after eating 0 min): 11.8 mM
glycemic profile (mM blood glucose) ([2]; T2D9, 2 slices white bread + 29 g jam (Example B5), time after eating 15 min): 12.8 mM
glycemic profile (mM blood glucose) ([2]; T2D9, 2 slices white bread + 29 g jam (Example B5), time after eating 30 min): 11.6 mM
glycemic profile (mM blood glucose) ([2]; T2D9, 2 slices white bread + 29 g jam (Example B5), time after eating 45 min): 11.3 mM
glycemic profile (mM blood glucose) ([2]; T2D9, 2 slices white bread + 29 g jam (Example B5), time after eating 60 min): 11.4 mM
glycemic profile (mM blood glucose) ([2]; T2D9, 2 slices white bread + 29 g jam (Example B5), time after eating 75 min): 11.1 mM
glycemic profile (mM blood glucose) ([2]; T2D9, 2 slices white bread + 29 g jam (Example B5), time after eating 90 min): 10.4 mM
glycemic profile (mM blood glucose) ([2]; T2D9, 2 slices white bread + 29 g jam (Example B5), time after eating 105 min): 11.0 mM
glycemic profile (mM blood glucose) ([2]; T2D9, 2 slices white bread + 29 g jam (Example B5), time after eating 120 min): 11.8 mM
glycemic profile (mM blood glucose) ([2]; T2D9, 2 slices white bread + 29 g jam (Example B5), time after eating 135 min): 11.2 mM
glycemic profile (mM blood glucose) ([2]; T2D9, 2 slices white bread + 29 g jam (Example B5), time after eating 150 min): 11.8 mM
glycemic profile (mM blood glucose) ([2]; T2D9, 2 slices white bread + 29 g jam (Example B5), time after eating 165 min): 12.9 mM
glycemic profile (mM blood glucose) ([2]; T2D9, 2 slices white bread + 29 g jam (Example B5), time after eating 180 min): 10.2 mM
glycemic profile (mM blood glucose) ([2]; T2D9, 2 slices white bread + 29 g jam (Example B5), time after eating −10 min): 9.9 mM
glycemic profile (mM blood glucose) ([2]; T2D9, 2 slices white bread + 29 g jam (Example B5), time after eating −25 min): 10.4 mM
incidence of abdominal pain (patients): 19%
incidence of diarrhea (patients): 31%
incidence of flatulence (patients): 74%
